These results are taken from article PMC11721672, “Design, Structure–Activity Relationships, and Computational Modeling Studies of a Series of α-Helix Biased, Ultra-Short Glucagon-like Peptide-1 Receptor Agonists” (Molecules, 2024).

Like-named read-outs stand apart in the source and are kept apart here. Square brackets hold non-standard residues; d marks the D form. Peptide text beside a SMILES is read from it. Bip = N[C@@H](Cc1ccc(-c2ccccc2)cc1)C(=O)O; αMePhe(2-F) = C[C@](N)(Cc1ccccc1F)C(=O)O; αMeF = C[C@](N)(Cc1ccccc1)C(=O)O; Aib = CC(C)(N)C(=O)O

This assay has as its target T1, hGLP1 receptor (Homo sapiens, UniProt P43220).
T1 construct: expressed in transfected cells; host or cells: HEK (human embryonic kidney) cells co-expressing hGLP1 receptor and CRE-Luciferase
In words: GLP-1 receptor agonism assay (HTRF cAMP, HEK cells co-expressing hGLP1 receptor and CRE-Luciferase). The class given is cell-based. To be noted: for Emax: HEK293, Table 6 potency profile; for EC50 / dpEC50 (contribution of Cα-methylation) / pEC50: 0% HSA; for rescue of potency by Aib versus Ala substitution: Aib analog versus Ala analog at the same position; for decreased potency by Aib substitution: Aib-scanning, versus parent analog RXL-101; for dpEC50 (contribution of Cα-methylation): dpEC50 = pEC50 (Aib) − pEC50 (Ala) − 0.97, Aib peptide versus the Ala peptide of the same line. As to the method: Human embryonic kidney cells (HEK) co-expressing the hGLP1 receptor and CRE-Luciferase construct were used to determine agonist potency in this assay. The cells were thawed briefly at 37 °C, transferred to a sterile tube, and re-suspended in complete media at 37 °C. Cells were centrifuged at 1000 rpm for 5 min and collected; the cells were then re-suspended in an assay buffer consisting of Dulbecco’s phosphate-buffered saline (DPBS, GIBCO) with 500 μM of the phosphodiesterase inhibitor 3-isobutyl-1-methylxanthine (IBMX). The assay medium had 0% serum albumin, as specified in Table 1, Table 2, Table 3 and Table 4. The optimal cell density was determined to be 1000 cells/well. Cells were added to wells in 384-well plates containing appropriate pre-prepared dilutions of compounds (test peptides or reference compound exendin-4), sealed, and incubated with CO2 for 30 min. Test peptide solutions were diluted from 10 mM stock solutions to be used in two separate runs (performed in triplicate) from a maximal concentration of 1.0 μM, with 11 concentrations tested for each peptide using serial 1:3 dilution from this maximal concentration. […] The agonist assay was a homogeneous time-resolved fluorescence (HTRF) assay (Cisbio). Following incubation of the cells for 30 min with test or reference peptides, 5 μL of the cAMP acceptor cAMP-d2, prepared previously as a working solution from frozen stock (1:20 dilution), was added to each well of the assay plate along with 5 μL of anti-cAMP antibody-cryptate working solution (diluted 1:20 from frozen stock). The wells were incubated for 1 h at room temperature, and fluorescence was then read at 665 and 615 nm with an Envision reader with a TRF laser. Data were saved and analyzed using Prism software (GraphPad). Concentration–response analysis was performed using 4-parameter logistic fits of the resulting data, and EC50 values were obtained for each test and reference compound.
Background: Time-resolved FRET reads energy transfer from a long-lived donor to a nearby acceptor.

[1] abbreviates: Table 1, Phe6 modifications, average of two independent experiments in triplicate (RXL-3039 tested once), read-out: cAMP EC50.

T1 sequence (P43220 24-463): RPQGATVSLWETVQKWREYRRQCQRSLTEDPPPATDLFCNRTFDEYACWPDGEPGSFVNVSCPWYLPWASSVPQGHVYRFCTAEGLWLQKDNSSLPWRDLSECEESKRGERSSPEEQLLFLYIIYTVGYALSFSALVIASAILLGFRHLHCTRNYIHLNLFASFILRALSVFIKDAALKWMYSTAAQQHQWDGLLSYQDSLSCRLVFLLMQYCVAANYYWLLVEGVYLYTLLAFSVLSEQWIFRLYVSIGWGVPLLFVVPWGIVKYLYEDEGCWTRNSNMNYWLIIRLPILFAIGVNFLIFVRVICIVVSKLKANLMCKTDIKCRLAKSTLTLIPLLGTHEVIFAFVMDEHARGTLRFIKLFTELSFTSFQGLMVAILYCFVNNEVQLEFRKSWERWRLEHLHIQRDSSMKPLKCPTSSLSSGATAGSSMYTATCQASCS

For the compound `C[C@@H](O)[C@H](NC(=O)CNC(=O)[C@H](CCC(=O)O)NC(=O)C(C)(C)NC(=O)[C@@H](N)Cc1c[nH]cn1)C(=O)N[C@@H](CCc1ccccc1)C(=O)N[C@H](C(=O)N[C@@H](CO)C(=O)N[C@@H](CC(=O)O)C(=O)N[C@@H](Cc1ccc(-c2ccccc2)cc1)C(=O)N[C@@H](Cc1ccc(-c2ccccc2)cc1)C(N)=O)[C@@H](C)O` [RXL-3019, His-Aib-Glu-Gly-Thr-hPhe-Thr-Ser-Asp-Bip-Bip-NH2], the Emax amounted to 110%. Further, under setting [1], the EC50 is 16 nM.
`C[C@@H](O)[C@H](NC(=O)CNC(=O)[C@H](CCC(=O)O)NC(=O)C(C)(C)NC(=O)[C@@H](N)Cc1c[nH]cn1)C(=O)N[C@@](C)(Cc1ccccc1)C(=O)N[C@H](C(=O)N[C@@H](CO)C(=O)N[C@@H](CC(=O)O)C(=O)N[C@@H](Cc1ccc(-c2ccccc2)cc1)C(=O)N[C@@H](Cc1ccc(-c2ccccc2)cc1)C(N)=O)[C@@H](C)O` [RXL-3020, His-Aib-Glu-Gly-Thr-α-Me-Phe-Thr-Ser-Asp-Bip-Bip-NH2] (H-H[Aib]EGT[αMeF]TSD[Bip][Bip]-NH2) had an Emax of 108%.
Compound `C[C@@H](O)[C@H](NC(=O)CNC(=O)[C@H](CCC(=O)O)NC(=O)C(C)(C)NC(=O)[C@@H](N)Cc1c[nH]cn1)C(=O)N[C@@H](Cc1ccc(O)cc1)C(=O)N[C@H](C(=O)N[C@@H](CO)C(=O)N[C@@H](CC(=O)O)C(=O)N[C@@H](Cc1ccc(-c2ccccc2)cc1)C(=O)N[C@@H](Cc1ccc(-c2ccccc2)cc1)C(N)=O)[C@@H](C)O` [RXL-3021, His-Aib-Glu-Gly-Thr-Tyr-Thr-Ser-Asp-Bip-Bip-NH2] (H-H[Aib]EGTYTSD[Bip][Bip]-NH2) gave an Emax of 100%. Further, under setting [1], the EC50 turned out to be 3 nM.
Compound `C[C@@H](O)[C@H](NC(=O)CNC(=O)[C@H](CCC(=O)O)NC(=O)C(C)(C)NC(=O)[C@@H](N)Cc1c[nH]cn1)C(=O)N[C@H](Cc1ccccc1)C(=O)N[C@H](C(=O)N[C@@H](CO)C(=O)N[C@@H](CC(=O)O)C(=O)N[C@@H](Cc1ccc(-c2ccccc2)cc1)C(=O)N[C@@H](Cc1ccc(-c2ccccc2)cc1)C(N)=O)[C@@H](C)O` [RXL-3022, His-Aib-Glu-Gly-Thr-D-Phe-Thr-Ser-Asp-Bip-Bip-NH2] registered an Emax of 101%. The EC50 under setting [1] came to 23.2 nM.
Compound `C[C@@H](O)[C@H](NC(=O)CNC(=O)[C@H](CCC(=O)O)NC(=O)C(C)(C)NC(=O)[C@@H](N)Cc1c[nH]cn1)C(=O)N[C@@H](Cc1c[nH]c2ccccc12)C(=O)N[C@H](C(=O)N[C@@H](CO)C(=O)N[C@@H](CC(=O)O)C(=O)N[C@@H](Cc1ccc(-c2ccccc2)cc1)C(=O)N[C@@H](Cc1ccc(-c2ccccc2)cc1)C(N)=O)[C@@H](C)O` [RXL-3023, His-Aib-Glu-Gly-Thr-Trp-Thr-Ser-Asp-Bip-Bip-NH2] (H-H[Aib]EGTWTSD[Bip][Bip]-NH2) displayed an Emax of 106%. The EC50 under setting [1] was 13.8 nM.
For the compound `C[C@@H](O)[C@H](NC(=O)CNC(=O)[C@H](CCC(=O)O)NC(=O)C(C)(C)NC(=O)[C@@H](N)Cc1c[nH]cn1)C(=O)N[C@@H](Cc1ccc(-c2ccccc2)cc1)C(=O)N[C@H](C(=O)N[C@@H](CO)C(=O)N[C@@H](CC(=O)O)C(=O)N[C@@H](Cc1ccc(-c2ccccc2)cc1)C(=O)N[C@@H](Cc1ccc(-c2ccccc2)cc1)C(N)=O)[C@@H](C)O` [RXL-3024, His-Aib-Glu-Gly-Thr-Bip-Thr-Ser-Asp-Bip-Bip-NH2] (H-H[Aib]EGT[Bip]TSD[Bip][Bip]-NH2), the maximum response (Emax) worked out at 102%. Under setting [1], the EC50 came to 10.8 nM.
Consider `C[C@@H](O)[C@H](NC(=O)CNC(=O)[C@H](CCC(=O)O)NC(=O)C(C)(C)NC(=O)[C@@H](N)Cc1c[nH]cn1)C(=O)NC(C)(C)C(=O)N[C@H](C(=O)N[C@@H](CO)C(=O)N[C@@H](CC(=O)O)C(=O)N[C@@H](Cc1ccc(-c2ccccc2)cc1)C(=O)N[C@@H](Cc1ccc(-c2ccccc2)cc1)C(N)=O)[C@@H](C)O` [RXL-3028, His-Aib-Glu-Gly-Thr-Aib-Thr-Ser-Asp-Bip-Bip-NH2] (H-H[Aib]EGT[Aib]TSD[Bip][Bip]-NH2), for which the “rescue of potency by Aib versus Ala substitution” value is given as “more than 10 fold”, the “decreased potency by Aib substitution” value is reported as at least 100 fold, the Emax turned out to be 76.1% and the “dpEC50 (contribution of Cα-methylation)” value came to 0.46. Further, the EC50 (Table 3, Aib-scanning, >1000 nM = out of range, read-out: cAMP EC50) was 161 nM. Besides, for the setting “Table 4, Aib-scan peptides, read-out: pEC50 (converted)”, the EC50 was 105 nM.
Consider `C[C@@H](O)[C@H](NC(=O)CNC(=O)[C@H](CCC(=O)O)NC(=O)C(C)(C)NC(=O)C(C)(C)N)C(=O)N[C@@](C)(Cc1ccccc1F)C(=O)N[C@H](C(=O)N[C@@H](CO)C(=O)N[C@@H](CC(=O)O)C(=O)N[C@@H](Cc1ccc(-c2ccccc2)cc1)C(=O)N[C@@H](Cc1ccc(-c2ccccc2)cc1)C(N)=O)[C@@H](C)O` [RXL-3030, Aib-Aib-Glu-Gly-Thr-α-Me-Phe(2-F)-Thr-Ser-Asp-Bip-Bip-NH2] (H-[Aib][Aib]EGT[αMePhe(2-F)]TSD[Bip][Bip]-NH2), for which the “decreased potency by Aib substitution” value was under 10 fold, the Emax turned out to be 112% and the “dpEC50 (contribution of Cα-methylation)” value is recorded as −0.26.
Turning to `C[C@@H](O)[C@H](NC(=O)CNC(=O)C(C)(C)NC(=O)C(C)(C)NC(=O)[C@@H](N)Cc1c[nH]cn1)C(=O)N[C@@](C)(Cc1ccccc1F)C(=O)N[C@H](C(=O)N[C@@H](CO)C(=O)N[C@@H](CC(=O)O)C(=O)N[C@@H](Cc1ccc(-c2ccccc2)cc1)C(=O)N[C@@H](Cc1ccc(-c2ccccc2)cc1)C(N)=O)[C@@H](C)O` [RXL-3031, His-Aib-Aib-Gly-Thr-α-Me-Phe(2-F)-Thr-Ser-Asp-Bip-Bip-NH2] (H-H[Aib][Aib]GT[αMePhe(2-F)]TSD[Bip][Bip]-NH2), the maximum response (Emax) came out at 121% and the “dpEC50 (contribution of Cα-methylation)” value is −1.13. Also, under “Table 4, Aib-scan peptides”, the pEC50 is given as 8.31.
`C[C@@H](O)[C@H](NC(=O)C(C)(C)NC(=O)[C@H](CCC(=O)O)NC(=O)C(C)(C)NC(=O)[C@@H](N)Cc1c[nH]cn1)C(=O)N[C@@](C)(Cc1ccccc1F)C(=O)N[C@H](C(=O)N[C@@H](CO)C(=O)N[C@@H](CC(=O)O)C(=O)N[C@@H](Cc1ccc(-c2ccccc2)cc1)C(=O)N[C@@H](Cc1ccc(-c2ccccc2)cc1)C(N)=O)[C@@H](C)O` [RXL-3032, His-Aib-Glu-Aib-Thr-α-Me-Phe(2-F)-Thr-Ser-Asp-Bip-Bip-NH2] (H-H[Aib]E[Aib]T[αMePhe(2-F)]TSD[Bip][Bip]-NH2): the “rescue of potency by Aib versus Ala substitution” value is listed as “about 10 fold”, the “decreased potency by Aib substitution” value is reported as at least 100 fold, the maximal response (Emax) was 118% and the “dpEC50 (contribution of Cα-methylation)” value was 0.37. In addition, the negative logarithm of the EC50 (pEC50) (Table 4, Aib-scan peptides) is given as 7.80.
As for `C[C@@H](O)[C@H](NC(=O)[C@](C)(Cc1ccccc1F)NC(=O)C(C)(C)NC(=O)CNC(=O)[C@H](CCC(=O)O)NC(=O)C(C)(C)NC(=O)[C@@H](N)Cc1c[nH]cn1)C(=O)N[C@@H](CO)C(=O)N[C@@H](CC(=O)O)C(=O)N[C@@H](Cc1ccc(-c2ccccc2)cc1)C(=O)N[C@@H](Cc1ccc(-c2ccccc2)cc1)C(N)=O` [RXL-3033, His-Aib-Glu-Gly-Aib-α-Me-Phe(2-F)-Thr-Ser-Asp-Bip-Bip-NH2] (H-H[Aib]EG[Aib][αMePhe(2-F)]TSD[Bip][Bip]-NH2), the maximum response (Emax) was 120% and the “dpEC50 (contribution of Cα-methylation)” value was −1.00.
`C[C@@H](O)[C@H](NC(=O)CNC(=O)[C@H](CCC(=O)O)NC(=O)C(C)(C)NC(=O)[C@@H](N)Cc1c[nH]cn1)C(=O)N[C@@](C)(Cc1ccccc1F)C(=O)NC(C)(C)C(=O)N[C@@H](CO)C(=O)N[C@@H](CC(=O)O)C(=O)N[C@@H](Cc1ccc(-c2ccccc2)cc1)C(=O)N[C@@H](Cc1ccc(-c2ccccc2)cc1)C(N)=O` [RXL-3034, His-Aib-Glu-Gly-Thr-α-Me-Phe(2-F)-Aib-Ser-Asp-Bip-Bip-NH2] (H-H[Aib]EGT[αMePhe(2-F)][Aib]SD[Bip][Bip]-NH2): the “decreased potency by Aib substitution” value was at least 100 fold, the maximal response (Emax) turned out to be 106% and the “dpEC50 (contribution of Cα-methylation)” value was −1.60. Besides, the pEC50 (Table 4, Aib-scan peptides) was 7.04. The “decreased potency of Aib analog versus Ala analog” value (same position, Ala superior to Aib) is reported as “about 10 fold”.
Regarding `C[C@@H](O)[C@H](NC(=O)CNC(=O)[C@H](CCC(=O)O)NC(=O)C(C)(C)NC(=O)[C@@H](N)Cc1c[nH]cn1)C(=O)N[C@@](C)(Cc1ccccc1F)C(=O)N[C@H](C(=O)NC(C)(C)C(=O)N[C@@H](CC(=O)O)C(=O)N[C@@H](Cc1ccc(-c2ccccc2)cc1)C(=O)N[C@@H](Cc1ccc(-c2ccccc2)cc1)C(N)=O)[C@@H](C)O` [RXL-3035, His-Aib-Glu-Gly-Thr-α-Me-Phe(2-F)-Thr-Aib-Asp-Bip-Bip-NH2] (H-H[Aib]EGT[αMePhe(2-F)]T[Aib]D[Bip][Bip]-NH2), the “decreased potency by Aib substitution” value was at least 100 fold, the Emax turned out to be 79.1% and the “dpEC50 (contribution of Cα-methylation)” value is −2.80.

A word on the Emax: it is the greatest response seen or fitted, relative to the assay's reference. Usually pEC50 stands for the negative decadic logarithm of the EC50, by convention in mol/L. Lower therefore signals a large EC50.
